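Five compound concentrations were applied to cells in 96-well plates for 48 hours; endpoints were derived by simple linear interpolation of the resulting dose-response curve. TGI: total growth inhibition.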
Tests used:
Experiment in all cases: NCI-60 cell line screen, 48 h
UACC-257 melanoma = tested on: UACC-257 melanoma
SK-OV-3 ovarian = tested on: SK-OV-3 ovarian
MDA-MB-435 = tested on: MDA-MB-435
U251 CNS = tested on: U251 CNS
TK-10 renal = tested on: TK-10 renal
HOP-62 NSCLC = tested on: HOP-62 NSCLC
LOX IMVI melanoma = tested on: LOX IMVI melanoma
MCF7 breast = tested on: MCF7 breast
HCT-15 colon = tested on: HCT-15 colon
PC-3 prostate = tested on: PC-3 prostate
NCI-H522 lung = tested on: NCI-H522 lung
SK-MEL-2 melanoma = tested on: SK-MEL-2 melanoma
MDA-N = tested on: MDA-N
NCI-H23 lung = tested on: NCI-H23 lung
IGROV1 ovarian = tested on: IGROV1 ovarian
COLO 205 colon = tested on: COLO 205 colon
NCI/ADR-RES ovarian = tested on: NCI/ADR-RES ovarian
MDA-MB-231 breast = tested on: MDA-MB-231 breast
786-0 renal = tested on: 786-0 renal
ACHN renal = tested on: ACHN renal
RPMI-8226 leukemia = tested on: RPMI-8226 leukemia
M14 melanoma = tested on: M14 melanoma
CCRF-CEM leukemia = tested on: CCRF-CEM leukemia
HCC-2998 colon = tested on: HCC-2998 colon
HT29 colon = tested on: HT29 colon
EKVX NSCLC = tested on: EKVX NSCLC
MALME-3M melanoma = tested on: MALME-3M melanoma
NCI-H226 lung = tested on: NCI-H226 lung
SK-MEL-28 melanoma = tested on: SK-MEL-28 melanoma
OVCAR-4 ovarian = tested on: OVCAR-4 ovarian
SN12C renal = tested on: SN12C renal
HCT-116 colon = tested on: HCT-116 colon
SNB-75 CNS = tested on: SNB-75 CNS
DU-145 prostate = tested on: DU-145 prostate
SF-295 CNS = tested on: SF-295 CNS
UACC-62 melanoma = tested on: UACC-62 melanoma
OVCAR-3 ovarian = tested on: OVCAR-3 ovarian
HL-60(TB) leukemia = tested on: HL-60(TB) leukemia
T-47D breast = tested on: T-47D breast
A549 NSCLC = tested on: A549 NSCLC
SF-539 CNS = tested on: SF-539 CNS
CAKI-1 renal = tested on: CAKI-1 renal
OVCAR-5 ovarian = tested on: OVCAR-5 ovarian
HOP-92 NSCLC = tested on: HOP-92 NSCLC
A498 renal = tested on: A498 renal
RXF 393 renal = tested on: RXF 393 renal
UO-31 renal = tested on: UO-31 renal
MOLT-4 leukemia = tested on: MOLT-4 leukemia
KM12 colon = tested on: KM12 colon
SNB-19 CNS = tested on: SNB-19 CNS
SK-MEL-5 melanoma = tested on: SK-MEL-5 melanoma
OVCAR-8 ovarian = tested on: OVCAR-8 ovarian
K-562 leukemia = tested on: K-562 leukemia
SW-620 colon = tested on: SW-620 colon

SMILES: COc1cc(-c2oc3c(OC)c(O)c(OC)c(O)c3c(=O)c2OC)cc(O)c1OC
- TGI (UACC-257 melanoma): > 100 µM
- TGI (SK-OV-3 ovarian): 49.3 µM
- TGI (MDA-MB-435): 77.6 µM
- TGI (U251 CNS): > 100 µM
- TGI (TK-10 renal): > 100 µM
- TGI (HOP-62 NSCLC): > 100 µM
- TGI (LOX IMVI melanoma): > 100 µM
- TGI (MCF7 breast): > 100 µM
- TGI (HCT-15 colon): > 100 µM
- TGI (PC-3 prostate): > 100 µM
- TGI (NCI-H522 lung): > 100 µM
- TGI (SK-MEL-2 melanoma): > 100 µM
- TGI (MDA-N): 36.2 µM
- TGI (NCI-H23 lung): 76.8 µM
- TGI (IGROV1 ovarian): > 100 µM
- TGI (COLO 205 colon): > 100 µM
- TGI (NCI/ADR-RES ovarian): 52.7 µM
- TGI (MDA-MB-231 breast): > 100 µM
- TGI (786-0 renal): > 100 µM
- TGI (ACHN renal): > 100 µM
- TGI (RPMI-8226 leukemia): > 100 µM
- TGI (M14 melanoma): > 100 µM
- TGI (CCRF-CEM leukemia): 79.4 µM
- TGI (HCC-2998 colon): > 100 µM
- TGI (HT29 colon): > 100 µM
- TGI (EKVX NSCLC): > 100 µM
- TGI (MALME-3M melanoma): 99.4 µM
- TGI (NCI-H226 lung): > 100 µM
- TGI (SK-MEL-28 melanoma): > 100 µM
- TGI (OVCAR-4 ovarian): > 100 µM
- TGI (SN12C renal): > 100 µM
- TGI (HCT-116 colon): > 100 µM
- TGI (SNB-75 CNS): 42 µM
- TGI (DU-145 prostate): > 100 µM
- TGI (SF-295 CNS): 53.6 µM
- TGI (UACC-62 melanoma): 71.8 µM
- TGI (OVCAR-3 ovarian): 63.3 µM
- TGI (HL-60(TB) leukemia): 57.9 µM
- TGI (T-47D breast): > 100 µM
- TGI (A549 NSCLC): > 100 µM
- TGI (SF-539 CNS): 45.4 µM
- TGI (CAKI-1 renal): > 100 µM
- TGI (OVCAR-5 ovarian): > 100 µM
- TGI (HOP-92 NSCLC): > 100 µM
- TGI (A498 renal): 75.4 µM
- TGI (RXF 393 renal): 79.4 µM
- TGI (UO-31 renal): > 100 µM
- TGI (MOLT-4 leukemia): > 100 µM
- TGI (KM12 colon): > 100 µM
- TGI (SNB-19 CNS): > 100 µM
- TGI (SK-MEL-5 melanoma): 55.6 µM
- TGI (OVCAR-8 ovarian): > 100 µM
- TGI (K-562 leukemia): > 100 µM
- TGI (SW-620 colon): > 100 µM
